Key:
Conditions in all cases: incubation time: 72 h
SK-BR-3 [1] = test: normalised viability (% of control), CellTiter-Blue; higher = more viable cells (about 100 = DMSO control)
In short: (§1)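 Breast cancer cell lines in 20 µl suspension were seeded onto 384-well plates pre-loaded with compound dissolved in 5 µl medium, then incubated 72 h. CellTiter-Blue reagent (2.5 µl) was added for 2 h at 37 °C and fluorescence read at 560/590 nm. Each plate was normalised to vehicle (100) and a positive kill control (0), with Z'-factor quality control. The value is normalised viability at one listed concentration of the series.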

HDQ-P1 = test: as above
In short: as §1

MDA-MB-231 [2] = test: as above
In short: as §1

MDA-MB-468 [3] = test: as above
In short: as §1

HCC1143 = test: as above
In short: as §1

MFM-223 = test: as above
In short: as §1

HCC1599 [4] = test: as above
In short: as §1

Hs578T = test: as above
In short: as §1

BT-549 = test: as above
In short: as §1

CAL-85-1 = test: as above
In short: as §1

CAL-148 = test: as above
In short: as §1

MDA-MB-436 = test: as above
In short: as §1

CAL-51 = test: as above
In short: as §1

MDA-MB-453 = test: as above
In short: as §1

BT-474 = test: as above
In short: as §1

DU-4475 = test: as above
In short: as §1

HCC1937 = test: as above
In short: as §1

CAL-120 = test: as above
In short: as §1

SK-BR-3 [5] = test: drug sensitivity score (DSS), CellTiter-Glo (DSS (AUC-based score)); higher = stronger drug effect (viability inhibition or cytotoxicity); extreme values may be limits of the assay
In short: (§2)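 Plates with 384 wells held compound at 5 concentrations in 10-fold steps over a 10,000-fold range specific to each compound. Breast cancer cell lines were added in 20 µl suspension and incubated 72 h, then read for CellTox Green and CellTiter-Glo signals, with each plate normalised to 0.1 % DMSO and a positive kill control. The drug sensitivity score is based on the area under the fitted dose-response curve.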

MDA-MB-231 [6] = test: as above
In short: as §2

MDA-MB-468 [7] = test: as above
In short: as §2

HCC1599 [8] = test: as above
In short: as §2

NC1(c2ccc(-c3nc4ccn5c(=O)[nH]nc5c4cc3-c3ccccc3)cc2)CCC1 [MK-2206]
normalised viability [%]
Conditions	0.3 nM	1 nM	3 nM	10 nM	100 nM	1000 nM
BT-474	–	115	–	–	92.3	54
BT-549	–	101	–	–	106	85.3
CAL-51	104	–	101	99.6	–	–
CAL-85-1	104	–	95	100	–	–
CAL-120	–	111	–	–	106	79.2
CAL-148	102	–	106	110	–	–
DU-4475	120	–	111	107	–	–
HCC1143	–	105	–	–	108	87.7
HCC1599 [4]	–	98.8	–	–	95.7	62.3
HCC1937	–	87.4	–	–	98.5	104
HDQ-P1	110	–	111	109	–	–
Hs578T	–	118	–	–	124	85.2
MDA-MB-231 [2]	–	127	–	–	95.9	104
MDA-MB-436	–	104	–	–	80.7	81
MDA-MB-453	112	–	95.2	96.6	–	–
MDA-MB-468 [3]	–	108	–	–	90.7	72.9
MFM-223	–	109	–	–	96.8	19.8
SK-BR-3 [1]	–	107	–	–	76.2	42.1

Conditions	drug sensitivity score
HCC1599 [8]	0
MDA-MB-231 [6]	0
MDA-MB-468 [7]	0.936
SK-BR-3 [5]	3.43

NC(=O)c1cccc2cn(-c3ccc([C@@H]4CCCNC4)cc3)nc12 [MK-4827]
normalised viability [%]
Conditions	3 nM	10 nM	30 nM	100 nM	1000 nM	10000 nM
BT-474	–	119	–	–	100	92.7
BT-549	–	79.1	–	–	93.3	72.4
CAL-51	112	–	105	104	–	–
CAL-85-1	95.8	–	92	93.1	–	–
CAL-120	–	81	–	–	76.9	71.1
CAL-148	97.7	–	98.2	95.8	–	–
DU-4475	94.8	–	81.1	85.5	–	–
HCC1143	–	88.9	–	–	85	64.6
HCC1599 [4]	–	93.4	–	–	116	93.3
HCC1937	–	55.2	–	–	70.5	38.3
HDQ-P1	95.3	–	94.1	95.6	–	–
Hs578T	–	96.2	–	–	93.7	80.7
MDA-MB-231 [2]	–	94	–	–	90.7	62.2
MDA-MB-436	–	84.2	–	–	72.4	65.3
MDA-MB-453	116	–	90.8	93.3	–	–
MDA-MB-468 [3]	–	101	–	–	89	50.4
MFM-223	–	92.4	–	–	96.4	111
SK-BR-3 [1]	–	95.9	–	–	95.2	74.9

Conditions	drug sensitivity score
HCC1599 [8]	0
MDA-MB-231 [6]	0
MDA-MB-468 [7]	1.06
SK-BR-3 [5]	0

N[C@@H](Cc1ccc(N(CCCl)CCCl)cc1)C(=O)O [Melphalan]
normalised viability [%]
Conditions	0.297 nM	0.99 nM	2.97 nM	9.9 nM	99 nM	990 nM
BT-474	–	99.9	–	–	98	99.1
BT-549	–	92.7	–	–	115	89.3
CAL-51	105	–	102	107	–	–
CAL-85-1	94.8	–	91.2	96.6	–	–
CAL-120	–	74.3	–	–	71.6	64.3
CAL-148	92.6	–	94.5	91.4	–	–
DU-4475	101	–	84.1	92.8	–	–
HCC1143	–	67.8	–	–	70.3	67.8
HCC1599 [4]	–	102	–	–	82.1	90.7
HCC1937	–	89	–	–	64.2	39.5
HDQ-P1	117	–	94	91.2	–	–
Hs578T	–	98.4	–	–	82	73
MDA-MB-231 [2]	–	91.1	–	–	97.7	91.5
MDA-MB-436	–	88.2	–	–	90	75.4
MDA-MB-453	105	–	101	102	–	–
MDA-MB-468 [3]	–	95.7	–	–	99.7	63
MFM-223	–	90	–	–	84.7	99.3
SK-BR-3 [1]	–	94.6	–	–	98.8	50.6

Conditions	drug sensitivity score
HCC1599 [8]	17.2
MDA-MB-231 [6]	20.7
MDA-MB-468 [7]	21.5
SK-BR-3 [5]	20.5

From the supplement of paper PMC4862054
